The text below walks through data of US20060089371A1, “Phenyl or heteroaryl amino alkane derivatives as ip receptor antagonist” (Bayer HealthCare AG, priority 2002, published 2006).

Structures are written as SMILES.

The target in one series is T1, IP receptor (Homo sapiens, UniProt P43119).
T1 construct: one million cells in 160 μl aliquot of cell suspension were put in a well of 96 well plate; host or cells: HEL 92.1.7 human erythroleukemia cells (whole cells)
Briefly: IP receptor binding/cAMP in HEL cells ([3H]-iloprost binding, Assay 1; iloprost-induced cAMP production, Assay 2). The following applies: compounds of about 40 to 90% purity, read-out: In vitro activity grade (IC50 class). The method, then:
[Measurement of the [^3H]-iloprost Binding to HEL Cells] (Assay 1)
A human erythloleukemia cell line, HEL 92.1.7, was purchased from American Type Culture Correction and maintained in RPMI-1640 medium (Gibco BRL) supplemented with 10% fetal calf serum (FCS), 2 mM glutamine, 4.5 g/L glucose, 10 mM Hepes, 1 mM sodium pyruvate, 100 U/ml penicillin, and 100 μg/ml streptomycin in a humidified 5% CO2 atmosphere at 37° C. Cells were collected with centrifugation and washed with binding assay buffer (BAB: 50 mM Tris-HCl, 5 mM MgCl2 (pH 7.5)). Cells were suspended at the density of 6.25×10^6 cells/ml in BAB, and one million cells in 160 μl aliquot of cell suspension were put in a well of 96 well plate (Falcon). Then, 20 μl of compound solution, 100 μM of iloprost (for non-specific binding), or buffer alone (total binding), diluted with 1% DMSO in BAB was added. Finally, another 20 μl containing [^3H]-iloprost (0.02 μCi, 0.5-1 pmol) in BAB was added and incubated at room temperature for 30 min with a gentle shaking. Cell suspension was then transferred to a well of MultiScreen plate with GF/C glass filters (Millipore) to harvest cells. Cells were washed twice with 200 μl of ice-cold BAB and the plate was kept at 55° C. for 30 min to dry filters. The filter in the well was punched out to a counting tube and 2 ml of Ultima Gold XR (Packard) was added. [^3H]-radio activity in the filter was measured by a liquid scintillation counter (Beckman, USA).
[Iloprost-Induced cAMP Production Assay in HEL Cells] (Assay 2)
HEL cells were collected with centrifugation and washed with cAMP assay buffer (CAB: Hank's balanced salt solution, 17 mM Hepes, 0.1% bovine serum albumin, 1 mM IBMX, 0.4% DMSO, and 1 mM L-ascorbic acid sodium salt (pH 7.4)). Cells were suspended at the density of 2.5×10^5 cells/ml in CAB, and twenty thousand cells in 80 μl aliquot of cell suspension were put in a well of 96 well plate (Falcon). Then, 10 μl of compound solution diluted with 1% DMSO in CAB or buffer alone was added. The plate was incubated at 37° C. for 30 min. Then, another 10 μl containing 100 nM iloprost in CAB or buffer alone was added and further incubated at 37° C. for 30 min. cAMP content in the well was measured by a cAMP ELISA kit (Applied Biosystems, USA).
The data corresponds to the compounds as yielded by solid phase synthesis and thus to levels of purity of about 40 to 90%. For practical reasons, the compounds are grouped in three classes of activity as follows: IC50=A<0.1 μM≦B<1 μM≦C
Background: cAMP levels reflect the balance of adenylyl cyclase and phosphodiesterase activity.

T1 sequence (P43119 whole entry): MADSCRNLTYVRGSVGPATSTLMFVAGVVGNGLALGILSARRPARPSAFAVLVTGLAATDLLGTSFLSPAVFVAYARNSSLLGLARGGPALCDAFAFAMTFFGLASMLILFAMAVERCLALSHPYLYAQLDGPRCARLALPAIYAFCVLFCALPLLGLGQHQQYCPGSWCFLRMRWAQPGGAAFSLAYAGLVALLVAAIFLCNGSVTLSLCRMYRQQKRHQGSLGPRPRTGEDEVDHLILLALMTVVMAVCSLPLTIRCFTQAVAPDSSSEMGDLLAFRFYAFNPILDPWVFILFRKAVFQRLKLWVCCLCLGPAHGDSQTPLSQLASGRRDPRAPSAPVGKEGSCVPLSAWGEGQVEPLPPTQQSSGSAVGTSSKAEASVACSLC

Consider `O=C(O)[C@H](Cc1ccccc1)Nc1cc(-c2ccc(/C=C\c3ccccc3)cc2)ncn1` [Example 10-1, N-(6-{4-[(Z)-2-Phenylvinyl]phenyl}pyrimidin-4-yl)phenylalanin], for which the melting point (in general, the temperature, or range, at which the solid turns liquid) was 217 to 220 °C (dec.). Moreover, the IC50 (as a rule, the concentration that gives 50% inhibition) at IP receptor was below 100 nM.

In the case of `C=CCC(Nc1cc(-c2ccc(OCc3ccccc3)cc2)ncn1)C(=O)O` (centres unmarked) [Example 1-28], the melting point fell in the range of 135 to 137 °C. On IP receptor, the IC50 was below 100 nM.

The compound `O=C(O)C(Cc1ccccc1)Nc1cc(-c2ccc(OCc3cccc(F)c3)cc2)ncn1` (centres unmarked) [Example 2-3] yielded a melting point of 175 to 177 °C. Besides, the IC50 on IP receptor is below 100 nM.

As to `O=C(O)C(Cc1ccccc1)Nc1cc(-c2ccc(OCCN3CCCC3)cc2)ncn1` (centres unmarked) [Example 2-22], the melting point lay in the range of 117 to 120 °C. The IC50 at IP receptor is above 1000 nM.

Compound `O=C(O)C(Cc1ccccc1)Nc1cc(-c2ccc(O)cc2)ncn1` (centres unmarked) [Example 2-5] showed a melting point of 223 to 227 °C. Besides, on IP receptor, the half-maximal inhibitory concentration (IC50) was above 1000 nM.

In the case of `O=C(O)C(Cc1ccccn1)Nc1cc(-c2ccc(OCc3cccc(F)c3)cc2)ncn1` (centres unmarked) [Example 2-33], the melting point was 92 to 95 °C. For the same compound, the 50% inhibitory concentration (IC50) at IP receptor was below 100 nM.

With `O=C(O)C(Cc1ccccc1)Nc1cc(-c2ccc(CCCc3ccccc3)cc2)ncn1` (centres unmarked) [Example 1-6], the melting point was in the range of 112 to 114 °C. Also, on IP receptor, the IC50 is below 100 nM.

As for `O=C(O)[C@H](Cc1ccccc1)Nc1cc(-c2ccc(OCc3ccccc3)nc2)ncn1` [Example 25-1, N-{6-[6-(benzyloxy)pyridin-3-yl]pyrimidin-4-yl}phenylalanine], the melting point lay in the range of 130 to 133 °C. In addition, the IC50 on IP receptor is below 100 nM.

Take `O=C(O)C(Cc1ccc(Cl)cc1)Nc1cc(-c2ccc(OCC3CC3)cc2)ncn1` (centres unmarked) [Example 1-40]: the melting point fell in the range of 166 to 169 °C. Also, on IP receptor, the IC50 is below 100 nM.

Regarding `CCCCC(Nc1cc(-c2ccc(OCCc3ccccc3)cc2)ncn1)C(=O)O` (centres unmarked) [Example 2-40], the melting point is 86 to 88 °C. Besides, on IP receptor, the half-maximal inhibitory concentration (IC50) is below 100 nM.

Turning to `CC(C)(C)OC(=O)Nc1ccc(-c2cc(NC(Cc3ccccc3)C(=O)O)ncn2)cc1` (centres unmarked) [Example 14-2], the melting point was 153 to 155 °C (dec.). Moreover, the 50% inhibitory concentration (IC50) at IP receptor is 100 to 1000 nM.

Turning to `O=C(O)C(Cc1ccccc1)Nc1cc(-c2ccc(OCc3ccccc3)cc2)ccn1` (centres unmarked) [Example 3-4], the melting point was 194 to 196 °C. Besides, on IP receptor, the IC50 is below 100 nM.

Regarding `O=C(O)C(Cc1ccccc1)Nc1cc(-c2ccc(OCc3ccc(F)cc3)cc2)ncn1` (centres unmarked) [Example 2-7], the melting point is 228 to 230 °C (dec.). Further, at IP receptor, the IC50 is below 100 nM.

In turn, `CCCCC(Nc1cc(-c2ccc(OCc3ccccc3)cc2)ncn1)C(=O)O` (centres unmarked) [Example 1-13] gave a melting point of 187 °C. For the same compound, on IP receptor, the IC50 is below 100 nM.

In the case of `O=C(O)C(Cc1ccccc1)Nc1cc(-c2ccc(OCc3cc(F)cc(F)c3)cc2)ncn1` (centres unmarked) [Example 2-11], the melting point was 207 to 210 °C (dec.). Besides, the IC50 at IP receptor was below 100 nM.

`O=C(O)C(Cc1ccccc1)Nc1cc(-c2ccc(Cc3ccc(Cl)cc3)cc2)ncn1` (centres unmarked) [Example 18-3]: the melting point fell in the range of 105 to 107 °C. For the same compound, the IC50 at IP receptor was in the range of 100 to 1000 nM.

Consider `O=C(O)C(Cc1ccccc1)Nc1cc(-c2ccc(OCc3ccccc3)cc2)ncn1` (centres unmarked) [Example 1-7], for which the melting point was in the range of 175 to 178 °C. Also, at IP receptor, the IC50 is below 100 nM.

As to `O=C(c1ccc(F)cc1)c1ccc(-c2cc(NC(Cc3ccccc3)C(=O)O)ncn2)cc1` (centres unmarked) [Example 17-4], the melting point lay in the range of 115 to 117 °C. Also, the IC50 at IP receptor is below 100 nM.

Turning to `CC(Nc1cc(-c2ccc(OCc3ccccc3)cc2)ncn1)C(=O)O` (centres unmarked) [Example 1-18], the melting point came to 158 °C. Besides, the IC50 at IP receptor is 100 to 1000 nM.

Compound `CC(Cc1cccc(O)c1)(Nc1cc(-c2ccc(OCc3ccccc3)cc2)ncn1)C(=O)O` (centres unmarked) [Example 1-35] yielded a melting point of 265 to 267 °C. Besides, the IC50 on IP receptor is above 1000 nM.

Consider `O=C(O)C(Cc1ccccc1)Nc1cc(-c2ccc(-c3ccc(Oc4ccccc4)cc3)cc2)ncn1` (centres unmarked) [Example 11-11], for which the melting point was 120 to 123 °C (dec.). In addition, at IP receptor, the IC50 fell in the range of 100 to 1000 nM.

On to `O=C(O)C(Cc1ccccc1)Nc1ncnc(-c2ccc(OCc3ccccc3)cc2)n1` (centres unmarked) [Example 1-30], for which the melting point fell in the range of 186 to 188 °C. Moreover, the IC50 at IP receptor was below 100 nM.

Turning to `O=C(O)C(Cc1ccccc1)Nc1cc(-c2ccc(OCc3ccncc3)cc2)ncn1` (centres unmarked) [Example 2-29], the melting point lay within 110 to 113 °C. Besides, the IC50 at IP receptor was below 100 nM.

Turning to `O=C(O)C(Cc1ccc(F)cc1)Nc1cc(-c2ccc(OCC3CC3)cc2)ncn1` (centres unmarked) [Example 1-42], the melting point fell in the range of 126 to 128 °C. For the same compound, the IC50 at IP receptor is below 100 nM.

`O=C(O)C(Cc1ccccc1)Nc1cc(-c2ccc(OCc3ccccc3)c(F)c2)ncn1` (centres unmarked) [Example 1-47] had a melting point of 117 to 120 °C. Further, the IC50 at IP receptor is below 100 nM.

Take `O=C(O)C(CCc1ccccc1)Nc1cc(-c2ccc(OCc3ccccc3)cc2)ncn1` (centres unmarked) [Example 1-14]: the melting point is 226 to 228 °C. Moreover, the IC50 at IP receptor was below 100 nM.

Compound `O=C(O)C(Cc1ccccn1)Nc1cc(-c2ccc(OCc3ccccc3)c(F)c2)ncn1` (centres unmarked) [Example 1-46] gave a melting point of 107 °C. For the same compound, the IC50 on IP receptor was below 100 nM.

As for `O=C(NO)C(Cc1ccccc1)Nc1cc(-c2ccc(OCc3ccccc3)cc2)ncn1` (centres unmarked) [Example 26-1, N-{6-[4-(Benzyloxy)phenyl]pyrimidin-4-yl}-N-hydroxyphenylalaninamide], the melting point was in the range of 235 to 239 °C. Further, at IP receptor, the IC50 is below 100 nM.

With `CCCCC(Nc1cc(-c2ccc(OCc3cccc(F)c3)cc2)ncn1)C(=O)O` (centres unmarked) [Example 2-35], the melting point lay in the range of 181 to 186 °C. The half-inhibitory concentration (IC50) at IP receptor was below 100 nM.

For the compound `O=C(O)C(Cc1ccccc1)Nc1cc(-c2cccc(OCc3ccccc3)c2)ncn1` (centres unmarked) [Example 1-43], the melting point was 150 to 152 °C. Further, the IC50 on IP receptor was above 1000 nM.

Consider `O=C(O)[C@H](Cc1ccccc1)Nc1cc(-c2ccc(/C=N/Oc3ccccc3)cc2)ncn1` [Example 21-1, N-(6-{4-[(E)-(phenoxyimino)methyl]phenyl}pyrimidin-4-yl)phenylalanine], for which the melting point worked out at 152.8 °C. In addition, the IC50 at IP receptor is below 100 nM.

`O=C(O)[C@H](Cc1ccccc1)Nc1ccnc(-c2ccc(OCc3ccccc3)cc2)c1` [Example 28-1, N-{2-[4-(Benzyloxy)phenyl]pyridin-4-yl}phenylalanine]: the melting point was 137 to 139 °C. Also, the IC50 at IP receptor is below 100 nM.

Compound `CCCCC(Nc1cc(-c2ccc(-c3ccccc3)cc2)ncn1)C(=O)O` (centres unmarked) [Example 1-56] gave a melting point of 110 to 120 °C. For the same compound, at IP receptor, the IC50 lay in the range of 100 to 1000 nM.

As for `O=C(c1ccc(-c2cc(NC(Cc3ccccc3)C(=O)O)ncn2)cc1)C1CCCC1` (centres unmarked) [Example 17-3], the melting point lay within 114 to 116 °C. In addition, the IC50 at IP receptor is below 100 nM.

As for `O=C(O)C(Cc1ccccc1)Nc1cc(-c2ccc(OCC(F)(F)F)cc2)ncn1` (centres unmarked) [Example 2-31], the melting point is 109 to 112 °C. Moreover, the IC50 at IP receptor was below 100 nM.

On to `O=C(O)C(Cc1ccccn1)Nc1cc(-c2ccc(OCc3cc(F)cc(F)c3)cc2)ncn1` (centres unmarked) [Example 2-39], for which the melting point fell in the range of 90 to 92 °C. For the same compound, at IP receptor, the IC50 is below 100 nM.

`O=C(O)C(Cc1ccccc1)Nc1cccc(-c2ccc(OCCn3cccc3)cc2)c1` (centres unmarked) [Example 24-7] gave a melting point of 182 to 185 °C. Also, the IC50 on IP receptor is below 100 nM.

`O=C(O)C(Cc1ccccc1)Nc1ncnc(-c2ccc(OCc3ccccc3)cc2)c1[N+](=O)[O-]` (centres unmarked) [Example 1-9] yielded a melting point below 80 °C. Besides, at IP receptor, the IC50 was above 1000 nM.

Regarding `O=C(O)C(Cc1ccccc1)Nc1cc(-c2ccc(OCCn3cccc3)cc2)ncn1` (centres unmarked) [Example 2-9], the melting point was 209 to 211 °C. Also, the 50% inhibitory concentration (IC50) on IP receptor is below 100 nM.

As to `O=C(O)C(Cc1ccccc1)Nc1cc(-c2ccc(-c3ccc4ccccc4c3)cc2)ncn1` (centres unmarked) [Example 11-5], the melting point is 130 to 132 °C (dec.). The IC50 at IP receptor is below 100 nM.
